Measured values as given in patent publication US11254690B2, “PTEFb inhibiting macrocyclic compounds” (BAYER AKTIENGESELLSCHAFT, priority 2017, dated 2022).
Like-named read-outs stand apart in the source and are kept apart here.

How the values were obtained:
A2780 cells = test: Proliferation assay, A2780; format: cell-based, human; details: 72-hour exposure, Cell Titre-Glo, read-out: Inhibition of A2780 cell proliferation IC50
Experimental: Cultivated tumour cells (HeLa, human cervical tumour cells, ATCC CCL-2; NCI-H460, human non-small cell lung carcinoma cells, ATCC HTB-177; DU 145, hormone-independent human prostate carcinoma cells, ATCC HTB-81; HeLa-MaTu-ADR, multidrug-resistant human cervical carcinoma cells, EPO-GmbH Berlin; Caco-2, human colorectal carcinoma cells, ATCC HTB-37; B16F10, mouse melanoma cells, ATCC CRL-6475) were plated at a density of 5,000 cells/well (DU145, HeLa-MaTu-ADR), 3,000 cells/well (NCI-H460, HeLa), 1,500 cells/well (Caco-2), or 1,000 cells/well (B16F10) in a 96-well multititer plate in 200 μL of their respective growth medium supplemented 10% fetal calf serum. After 24 hours, the cells of one plate (zero-point plate) were stained with crystal violet (see below), while the medium of the other plates was supplemented with the test substances in various concentrations (0 μM, as well as in the range of 0.0001-10 μM; the final concentration of the solvent dimethyl sulfoxide was adjusted to 0.1%) using a Hewlett-Packard HP D300 Digital Dispenser. The cells were incubated for 4 days in the presence of test substances. Cell proliferation was determined by staining the cells with crystal violet: the cells were fixed by adding 20 μl/measuring point of an 11% glutaric aldehyde solution for 15 minutes at room temperature. After three washing cycles of the fixed cells with water, the plates were dried at room temperature. The cells were stained by adding 100 μl/measuring point of a 0.1% crystal violet solution (pH 3.0). After three washing cycles of the stained cells with water, the plates were dried at room temperature. The dye was dissolved by adding 100 μl/measuring point of a 10% acetic acid solution. The extinction was determined by photometry at a wavelength of 595 nm. The change of cell number, in percent, was calculated by normalization of the measured values to the extinction values of the zero-point plate (=0%) and the extinction of the untreated ([…]) cells (=100%). The IC50 values (inhibitory concentration at 50% of maximal effect) were determined by means of a 4 parameter fit. A2780 human ovarian carcinoma cells (ECACC #93112519) and non-adherent MOLM-13 human acute myeloid leukemia cells (DSMZ ACC 554) were seeded at a density of 3,000 cell/well (A2780) or 5,000 cells/well (MOLM-13) in a 96-well multititer plate in 150 μL of growth medium supplemented 10% fetal calf serum. After 24 hours, cell viability of one plate (zero-point plate) was determined with the Cell Titre-Glo Luminescent Cell Viability Assay (Promega), while the medium of the other plates was supplemented with the test substances in various concentrations (0 μM, as well as in the range of 0.0001-10 μM; the final concentration of the solvent dimethyl sulfoxide was adjusted to 0.1%) using a Hewlett-Packard HP D300 Digital Dispenser. Cell viability was assessed after 72-hour exposure with the Cell Titre-Glo Luminescent Cell Viability Assay (Promega). IC50 values (inhibitory concentration at 50% of maximal effect) were determined by means of a 4 parameter fit on measurement data which were normalized to vehicle (DMSO) treated cells (=100%) and measurement readings taken immediately before compound exposure (=0%).

CDK2/CycE = biological target: T1, CDK2/CycE (Homo sapiens, UniProt P24941); test: CDK2/CycE high ATP kinase assay (TR-FRET, 2 mM ATP); format: biochemical; details: Method 2b
T1 construct: GST; purchased ProQinase GmbH (Freiburg, Germany); host or cells: insect cells (Sf9)
Experimental: 2b. CDK2/CycE High ATP Kinase Assay
CDK2/CycE-inhibitory activity of compounds of the present invention at 2 mM adenosine-tri-phosphate (ATP) was quantified employing the CDK2/CycE TR-FRET (TR-FRET=Time Resolved Fluorescence Energy Transfer) assay as described in the following paragraphs.
Recombinant fusion proteins of GST and human CDK2 and of GST and human CycE, expressed in insect cells (Sf9) and purified by Glutathion-Sepharose affinity chromatography, were purchase from ProQinase GmbH (Freiburg, Germany). As substrate for the kinase reaction biotinylated peptide biotin-Ttds-YISPLKSPYKISEG (C-terminus in amid form) was used which can be purchased e.g. form the company JERINI peptide technologies (Berlin, Germany).
(§1) For the assay 50 nl of a 100 fold concentrated solution of the test compound in DMSO was pipetted into either a black low volume 384 well microtiter plate or a black 1536 well microtiter plate (both Greiner Bio-One, Frickenhausen, Germany), 2 μl of a solution of CDK2/CycE in aqueous assay buffer [50 mM Tris/HCl pH 8.0, 10 mM MgCl2, 1.0 mM dithiothreitol, 0.1 mM sodium ortho-vanadate, 0.01% (v/v) Nonidet-P40 (Sigma)] were added and the mixture was incubated for 15 min at 22° C. to allow pre-binding of the test compounds to the enzyme before the start of the kinase reaction. […] The concentration of CDK2/CycE was adjusted depending of the activity of the enzyme lot and was chosen appropriate to have the assay in the linear range, typical concentrations were about 10 ng/ml. The reaction was stopped by the addition of 3 μl of a solution of TR-FRET detection reagents (0.333 μM streptavidine-XL665 [Cisbio Bioassays, Codolet, France] and 1.67 nM anti-RB(pSer807/pSer811)-antibody from BD Pharmingen [#558389] and 2 nM LANCE EU-W1024 labeled anti-mouse IgG antibody [Perkin-Elmer, product no. AD0077, as an alternative a Terbium-cryptate-labeled anti-mouse IgG antibody from Cisbio Bioassays can be used]) in an aqueous EDTA-solution (167 mM EDTA, 0.2% (w/v) bovine serum albumin in 100 mM HEPES pH 7.5).
(§2) The resulting mixture was incubated 1 h at 22° C. to allow the formation of complex between the phosphorylated biotinylated peptide and the detection reagents. Subsequently the amount of phosphorylated substrate was evaluated by measurement of the resonance energy transfer from the Eu-chelate to the streptavidine-XL. Therefore, the fluorescence emissions at 620 nm and 665 nm after excitation at 350 nm was measured in a TR-FRET reader, e.g. a Pherastar (BMG Labtechnologies, Offenburg, Germany) or a Viewlux (Perkin-Elmer). The ratio of the emissions at 665 nm and at […] was taken as the measure for the amount of phosphorylated substrate. The data were normalised (enzyme reaction without inhibitor=0% inhibition, all other assay components but no enzyme=100% inhibition).

CDK9/CycT1 = biological target: T2, CDK9/CycT1 (Homo sapiens, UniProt P50750); test: CDK9/CycT1 high ATP kinase assay (TR-FRET, 2 mM ATP); format: biochemical; details: for IC50: 2 mM ATP, Method 1b, lower limit for IC50s about 1-2 nM; for Selectivity high ATP CDK9 over high ATP CDK2: IC50 (high ATP CDK2)/IC50 (high ATP CDK9): ratio from Methods 1b and 2b, minimal values for IC50s near the assay limit
T2 construct: Recombinant full-length His-tagged human CDK9 and CycT1; His; purchased Life Technologies PV4131; host or cells: insect cells
Experimental: 1b. CDK9/CycT1 High ATP Kinase Assay
CDK9/CycT1-inhibitory activity of compounds of the present invention at a high ATP concentration after preincubation of enzyme and test compounds was quantified employing the CDK9/CycT1 TR-FRET assay as described in the following paragraphs.
Recombinant full-length His-tagged human CDK9 and CycT1, expressed in insect cells and purified by Ni-NTA affinity chromatography, were purchased from Life Technologies (Cat. No PV4131). As substrate for the kinase reaction biotinylated peptide biotin-Ttds-YISPLKSPYKISEG (C-terminus in amide form) was used which can be purchased e.g. form the company JERINI peptide technologies (Berlin, Germany).
as §1, with “CDK9/CycT1” for “CDK2/CycE”, “in the range of 0.5 μg/ml.” for “about 10 ng/ml.”, “(0.33” for “(0.333”, “AD0077])” for “AD0077, as an alternative a Terbium-cryptate-labeled anti-mouse IgG antibody from Cisbio Bioassays can be used])”
as §2

[1] = in vivo; cited from earlier work

T2 sequence (P50750 whole entry): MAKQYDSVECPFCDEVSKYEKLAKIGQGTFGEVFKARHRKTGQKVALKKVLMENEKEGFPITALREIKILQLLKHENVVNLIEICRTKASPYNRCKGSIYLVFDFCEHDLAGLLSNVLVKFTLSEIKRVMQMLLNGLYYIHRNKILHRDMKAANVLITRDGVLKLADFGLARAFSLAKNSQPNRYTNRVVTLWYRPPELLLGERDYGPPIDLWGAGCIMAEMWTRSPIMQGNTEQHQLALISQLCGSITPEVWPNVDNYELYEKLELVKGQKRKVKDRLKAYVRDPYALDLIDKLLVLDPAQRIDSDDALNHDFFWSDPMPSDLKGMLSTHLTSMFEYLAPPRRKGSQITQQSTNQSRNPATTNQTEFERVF
T2 sequence (O60563 whole entry partner): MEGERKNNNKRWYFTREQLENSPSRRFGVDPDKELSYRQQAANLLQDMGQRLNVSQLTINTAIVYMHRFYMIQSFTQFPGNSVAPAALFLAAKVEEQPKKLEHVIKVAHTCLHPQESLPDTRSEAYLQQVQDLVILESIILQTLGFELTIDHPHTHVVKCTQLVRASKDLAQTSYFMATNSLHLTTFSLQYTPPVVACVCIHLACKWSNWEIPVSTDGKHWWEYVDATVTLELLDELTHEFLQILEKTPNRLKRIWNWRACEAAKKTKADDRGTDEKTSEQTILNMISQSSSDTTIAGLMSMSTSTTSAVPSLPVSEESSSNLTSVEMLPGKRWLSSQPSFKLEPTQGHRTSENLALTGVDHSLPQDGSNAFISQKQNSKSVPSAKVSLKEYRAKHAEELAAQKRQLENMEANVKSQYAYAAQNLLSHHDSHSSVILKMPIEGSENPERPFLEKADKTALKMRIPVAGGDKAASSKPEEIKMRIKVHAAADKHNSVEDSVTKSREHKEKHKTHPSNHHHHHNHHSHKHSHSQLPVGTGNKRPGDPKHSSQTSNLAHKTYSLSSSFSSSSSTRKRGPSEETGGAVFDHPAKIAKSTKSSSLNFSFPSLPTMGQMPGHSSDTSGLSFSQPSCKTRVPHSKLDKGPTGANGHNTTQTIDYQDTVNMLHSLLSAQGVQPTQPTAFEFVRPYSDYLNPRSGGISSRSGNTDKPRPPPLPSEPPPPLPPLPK

| IC50 (A2780 cells; Homo sapiens, A2780, 72 h) | IC50 (CDK2/CycE) | IC50 (CDK9/CycT1) | Selectivity high ATP CDK9 over high ATP CDK2: IC50 (high ATP CDK2)/IC50 (high ATP CDK9) (CDK9/CycT1) | IC50 (A2780 cells) | Compound | protection against bronchospasms [1] |
| --- | --- | --- | --- | --- | --- | --- |
| 121 nM | > 20000 nM | 16 nM | 1250 | – | CC1CCCCCOc2cc(ccc2F)-c2cc(ncc2F)Nc2cc(CS(C)(=O)=O)cc(n2)O1 (single isomer, unassigned) [Example 31, 3,22-difluoro-14-methyl-10-[(methylsulfonyl)methyl]-13,20-dioxa-5,7,26-triazatetracyclo[19.3.1.1^2,6.1^8,12]hexacosa-1 (25),2(27),3,5,8(26),9,11,21,23-nonaene] | – |
| – | 4980 nM | 18 nM | 277 | 146 nM | CC1CCCCCOc2cc(ccc2F)-c2cc(ncc2F)Nc2cc(CS(C)(=O)=O)cc(n2)O1 (single isomer, unassigned) [Example 32, 3,22-difluoro-14-methyl-10-[(methylsulfonyl)methyl]-13,20-dioxa-5,7,26-triazatetracyclo[19.3.1.1^2,6.1^8,12]hexacosa-1 (25),2(27),3,5,8(26),9,11,21,23-nonaene] | – |
| – | – | – | – | – | C[N+]1(C)[C@@H]2C[C@@H](OC(=O)C(O)(c3cccs3)c3cccs3)C[C@H]1[C@@H]1O[C@@H]12 [tiotropium] | more than 6 hours |
